In brackets after ≈: the same amount, converted by molar mass. Bounds are passed on as bounds.

By Papp B→A is commonly meant how fast a substance crosses the layer from the basolateral side. Broadly, the efflux ratio is a quotient of directional permeabilities that is used to spot active efflux. As a reminder, the Papp A→B is how fast a substance crosses the layer from the apical side. As a reminder, the half-life is the time in which the quantity being followed falls by half. A lower half-life goes with rapid decline. As usually defined, the solubility is the concentration that dissolves in the medium under given conditions. High values mean a readily soluble substance, low ones a poorly soluble substance. By CC50 is commonly meant the concentration at which the toxic effect on the cells reaches its halfway point. High values mean better tolerance by the cells, low ones harm at low concentration. As usually defined, the IC50 is the concentration that gives 50% inhibition. A high value points to weaker potency. As a reminder, the Cmax is the maximum level reached in the sampled fluid or tissue. One may read the MRT inf as a mean duration of stay, worked out from the concentration-time curve. A word on the Tmax: it is the time from dosing to the highest level. One may read the AUC(0-inf) as the area under the concentration-time curve extrapolated to infinity. Low readings indicate low exposure, high ones high exposure. The term Vd denotes the apparent volume that relates the amount in the body to the concentration in plasma or blood. Higher therefore signals wide distribution into tissue. The term clearance denotes the rate of elimination divided by the concentration. Read a high clearance as efficient removal. A word on the bioavailability: it is dose-corrected exposure relative to a reference, in per cent. A high value points to good availability.

Series [1] is described as follows: in vitro. Conditions: dog; for Papp B→A / efflux ratio: MDCK-MDR1, pH 7.4; for Papp A→B: MDCK-MDR1, pH 7.4, Mean Papp A to B, A to B.
The conditions of series [2]: ref previous study; cited from earlier work.
Series [3] in a line: in vitro. Conditions: mouse, microsomes, pH 7.5.
The nature of the next series: physchem. As to conditions: 37 °C, water, thermodynamic from solid.
Series [4] can be described thus: in vitro. Conditions: rat, microsomes, pH 7.5.
Series [5] deals with Mycobacterium tuberculosis H37Ra. The experiment in a line: microbe, parasite or virus in culture. The series is classed as cell-based.
Series [6] in a line: in vitro. As to conditions: human, microsomes, pH 7.5.
Series [7] in a line: Cytotoxicity against VERO cells. It counts as cell-based. As to conditions: African green monkey, VERO cells (kidney epithelial cells).
Another series addresses CYP3A4 (Homo sapiens, UniProt P08684). In words: biochemical.
The target of another series is CYP2C19 (Homo sapiens, UniProt P33261). In words: biochemical. Conditions: CYP inhibitory IC50, 2C19.
Sequence of CYP2C19 (P33261 whole entry): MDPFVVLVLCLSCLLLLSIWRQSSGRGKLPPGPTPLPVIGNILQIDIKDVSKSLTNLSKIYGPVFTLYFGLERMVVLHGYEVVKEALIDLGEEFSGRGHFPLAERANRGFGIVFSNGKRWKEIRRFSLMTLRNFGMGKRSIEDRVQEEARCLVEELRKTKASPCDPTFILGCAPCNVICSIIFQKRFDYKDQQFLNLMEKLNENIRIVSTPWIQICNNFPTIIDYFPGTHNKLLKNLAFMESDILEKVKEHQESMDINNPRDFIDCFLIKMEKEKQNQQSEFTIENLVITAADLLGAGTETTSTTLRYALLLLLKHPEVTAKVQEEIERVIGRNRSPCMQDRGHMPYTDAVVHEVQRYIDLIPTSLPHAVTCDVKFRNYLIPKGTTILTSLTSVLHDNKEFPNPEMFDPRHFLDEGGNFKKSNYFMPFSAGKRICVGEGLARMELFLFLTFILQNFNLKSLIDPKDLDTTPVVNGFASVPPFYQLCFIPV
Series [8] in a line: Pharmacokinetic study in ICR mice. The series is classed as in vivo. As to conditions: mouse.

Sequence of CYP3A4 (P08684 whole entry): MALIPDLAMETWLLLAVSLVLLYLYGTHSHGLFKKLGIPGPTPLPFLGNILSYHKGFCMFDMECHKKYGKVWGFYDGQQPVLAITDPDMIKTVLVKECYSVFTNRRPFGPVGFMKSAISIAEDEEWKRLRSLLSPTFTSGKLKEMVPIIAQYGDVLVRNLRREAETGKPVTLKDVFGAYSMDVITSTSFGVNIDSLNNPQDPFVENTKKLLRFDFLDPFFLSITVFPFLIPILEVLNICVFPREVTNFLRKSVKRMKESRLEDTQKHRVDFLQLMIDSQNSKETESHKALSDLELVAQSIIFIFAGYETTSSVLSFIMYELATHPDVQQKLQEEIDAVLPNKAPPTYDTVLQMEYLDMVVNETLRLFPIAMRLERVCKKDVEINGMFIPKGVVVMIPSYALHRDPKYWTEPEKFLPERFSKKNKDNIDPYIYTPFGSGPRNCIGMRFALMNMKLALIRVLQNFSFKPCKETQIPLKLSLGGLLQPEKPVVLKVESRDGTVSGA

In the series “in vitro [1]”, `C[C@H]1COC2(CCN(c3nc(=O)c4cc(C(F)(F)F)cc([N+](=O)[O-])c4s3)CC2)O1` [BTZ043] showed a Papp B→A of 7.17 ×10⁻⁶ cm/s. Moreover, the efflux ratio in “in vitro [1]” was 0.79. This compound had a Papp A→B in the series “in vitro [1]” of 9.02 ×10⁻⁶ cm/s. Further, the “bioavailability F” value in series [2] is on record as 29.5%. Besides, the results for the half-life in the series “in vitro [3]”, in the series “in vitro [4]” and in the series “in vitro [6]” were 16.7 min, 22 min and 46.1 min, respectively. The compound also showed a solubility in the series “physchem” of less than 1 µg/mL. In series [5], the MIC was found to be 0.004 µM (≈ 1.73 ng/mL). Also, in [7], the half-maximal cytotoxic concentration (CC50) was more than 10 µM.
As to `O=C1CN(c2nc(=O)c3cc(C(F)(F)F)cc([N+](=O)[O-])c3s2)CCN1C1CCCC1` [Compound 1a, 2-(4-Cyclopentyl-3-oxopiperazin-1-yl)-8-nitro-6(trifluoromethyl)-4H-benzo[e]-[1,3]thiazin-4-one], the Papp B→A in the series “in vitro [1]” is 7.23 ×10⁻⁶ cm/s. Besides, the efflux ratio in “in vitro [1]” is 0.68. Further, the Papp A→B in the series “in vitro [1]” is 10.6 ×10⁻⁶ cm/s. Also, the half-life in “in vitro [3]” turned out to be 9.4 min; in “in vitro [4]”, 15.6 min; in the series “in vitro [6]”, 72 min. Besides, the IC50 against CYP3A4 worked out at 5.33 µM; against CYP2C19, 8.6 µM. In addition, the solubility in “physchem” came to 7.37 µg/mL (≈ 16.7 µM). In addition, the MIC in series [5] turned out to be 0.013 µM (≈ 5.75 ng/mL). Besides, in series [7], the CC50 is more than 10 µM.
In turn, `O=C1CN(c2nc(=O)c3cc(C(F)(F)F)cc([N+](=O)[O-])c3s2)CCN1C1CCCCC1` [Compound 1b, 2-(4-Cyclohexyl-3-oxopiperazin-1-yl)-8-nitro-6-(trifluoromethyl)-4H-benzo[e]-[1,3]thiazin-4-one] gave a solubility in “physchem” of 1.63 µg/mL (≈ 3.57 µM). In [5], the MIC is 0.017 µM (≈ 7.76 ng/mL). In addition, the CC50 in series [7] is more than 10 µM.
For `O=C1CN(c2nc(=O)c3cc(C(F)(F)F)cc([N+](=O)[O-])c3s2)CCN1CC1CCCCC1` [Compound 1c, 2-(4-(Cyclohexylmethyl)-3-oxopiperazin-1-yl)-8-nitro-6-(trifluoromethyl)-4H-benzo-[e][1,3]thiazin-4-one] the same measures were 3.57 µg/mL (≈ 7.59 µM), 0.017 µM (≈ 8 ng/mL) and more than 10 µM.
For `Cc1ccc(OC2CCN(c3nc(=O)c4cc(C(F)(F)F)cc([N+](=O)[O-])c4s3)CC2)c(F)c1` [Compound 3i, 2-(4-(2-Fluoro-4-methylphenoxy)piperidin-1-yl)-8-nitro-6-(tri-fluoromethyl)-4H-benzo[e][1,3]thiazin-4-one] the same measures were 1 µg/mL (≈ 2.07 µM), 0.016 µM (≈ 7.74 ng/mL) and more than 10 µM.
For `Cc1ccnc(OC2CCN(c3nc(=O)c4cc(C(F)(F)F)cc([N+](=O)[O-])c4s3)CC2)n1` [Compound 3m, 2-(4-((4-Methylpyrimidin-2-yl)oxy)piperidin-1-yl)-8-nitro-6-(trifluoromethyl)-4H-benzo[e][1,3]thiazin-4-one] the same measures were 2.39 µg/mL (≈ 5.11 µM), 0.031 µM (≈ 14.5 ng/mL) and more than 10 µM.
Consider `O=c1nc(N2CCN(CC3CCCCC3)CC2)sc2c([N+](=O)[O-])cc(C(F)(F)F)cc12` [PBTZ169], for which, in the series “in vitro [1]”, the Papp B→A was determined as 0.74 ×10⁻⁶ cm/s and the apical-to-basolateral permeability (Papp A→B) came to 0.74 ×10⁻⁶ cm/s. Moreover, in the series “in vitro [3]”, the half-life was determined as 14.4 min. For the same compound, in series [8] (lung, iv, 10 mg/kg), the concentration peaked (Cmax) at 4210 ng/mL, the MRT inf was 270 min, the Tmax was determined as 4.8 min and the half-life is 190 min. Further, in series [8] (lung, po, 100 mg/kg), the AUC(0-inf) came out at 7840 ng·h/mL, the peak concentration (Cmax) is 811 ng/mL, the mean residence time (MRT inf) turned out to be 390 min and the Tmax is 30 min. In series [8] (lung, po, 100 mg/kg), this compound gave a half-life of 254 min. Also, in series [8] (plasma, iv, 10 mg/kg), the AUC(0-inf) turned out to be 9070 ng·h/mL, the mean residence time MRT inf worked out at 63 min, the Tmax was determined as 4.8 min and the Vd amounted to 1.15 L/kg. In series [8] (plasma, iv, 10 mg/kg), this compound gave a clearance of 18.3 mL/min/kg and a half-life of 160 min. In [8] (plasma, po, 100 mg/kg), the Cmax came out at 3000 ng/mL, the MRT inf was found to be 222 min, the time of peak concentration (Tmax) was determined as 120 min and the bioavailability worked out at 20.8%. Besides, the half-life in series [8] (plasma, po, 100 mg/kg) is 125 min. Also, the half-life in “in vitro [4]” was determined as 14.7 min. The compound also displayed a half-life in the series “in vitro [6]” of 11.1 min.

Values taken from paper PMC9078972 (RSC Advances, 2018).
